# Measurements: US10570168B2, “2′ and/or 5′ amino-acid ester phosphoramidate 3′-deoxy adenosine derivatives as anti- cancer compounds” (NuCana plc, priority 2014, dated 2020)
# Assays:
# [1] = tested on: CCRF-CEM (TdT positive CEM); assay: ATP (ViaLight plus) cytotoxicity assay; type: cell-based, Human; conditions: for IC50: Homo sapiens, CCRF-CEM
# Method: (§1) Certain compounds of the invention were subjected to further studies to test the cytotoxic activity of certain compounds of the invention and also to measure their activity against 4 haematological cancer cell lines • TdT positive CEM (Human ALL) • TdT negative K562 (Human CML) • TdT negative H1-60 (Human ANLL) • RL (CRL-2261) non-HD lymphoma • The concentrations of the active metabolite dATP (Cordycepin triphosphate) in these cell lines was also measured. • The cytotoxic activity and the intracellular 3′-dATP concentrations were also studied in the presence of hENT1, Adenosine Kinase (AK) and Adenosine Deaminase pharmacological inhibitors in CEM and RL cancer cell lines. Said inhibitors that mimic known cancer resistance mechanisms. Methods Cell Culture
# (§2) HL-60 (ATCC® CCL-240™), K562 (ATCC® CCL-243™), CCRF-CEM (ATCC® CRM-CCL-119™) and RL (ATCC® CRL-2261™) leukaemia cell lines, obtained from the American Type Culture Collection (ATCC), Middlesex. HL-60 and K562 cell lines are deoxynucleotidyl transferase-negative (TdT-ve), whereas CCRF-CEM cell line is TdT+ve.
# (§3) HL-60, K562, CCRF-CEM and RL cell lines were cultured in RPMI-1640 medium (Sigma Aldrich, UK), which were supplemented with 10% Fetal Bovine Serum (FBS) (PAA Laboratories), 1% amphotericin B (5.5 ml) and 1% penicillin/streptomycin (5.5 ml) (PAA Laboratories) and grown in flasks at 37° C. incubator with 5% CO2.
# (§4) The amount of ATP was used as a measurement of cell number and cell viability. ATP ViaLight™ plus assay kit (Lonza, USA: Product No. LT07-121) to detect ATP in cells treated in luminescence compatible 96 well plates (initial concentration of cells was 1×10^4 cells/well) with cordycepin and ProTides at concentrations of: 0, 0.1, 0.5, 1, 5 and 10 μM, followed by incubation for 72 hours at 37° C. incubator with 5% CO2. For inhibitor studies, 10 μM of NBTI or 1 μM EHNA or A-134974 was added and left for 5 minutes before adding the drugs (see section 5 for inhibitor details).
# (§5) After incubation, 50 μl of cell lysis reagent was added to the 96 well plates to release the intracellular ATP, followed by 100 μl of ATP monitoring reagent (AMR). The luminescent values of each well were determined using FLUOstar OPTIMA microplate reader (BMG Labtech) which convert ATP into light by using luciferase enzyme. Therefore, the amount of luminescence produced was directly proportional to the amount of ATP.
# (§6) Cell lines were treated in the same way as described above but before treatment with drugs, a number of inhibitors were added: • 1) Nitrobenzylthioinosine (NBTI) (Sigma-Aldrich, St. Louis, Mo., product # N2255) blocks nucleoside transporters • 2) EHNA hydrochloride (Sigma-Aldrich, St. Louis, Mo., product # E114) blocks adenosine deaminase • 3) Adenosine kinase inhibitor A-134974 dihydrochloride hydrate (Sigma-Aldrich, St. Louis, Mo., product # A2846): blocks adenosine kinase
# (§7) The dose-response curves of cytotoxicity of the drugs was determined using non-linear regression analysis of percentage cell viability versus concentration and EC50 values were obtained. The intracellular assay was conducted in five replicates for each condition. Intracellular assay was determined using paired t test (two-tailed) analysis of 3′ATP/ATP concentration and p-values were obtained. For all the analysis, Prism Software program (GraphPad Software) was used and Microsoft Powerpoint® 2013 was used to plot the results.
# HL-60 (TdT negative) = assay: ATP (ViaLight plus) cytotoxicity assay; type: cell-based, Human; conditions: for (FD) fold difference compared to Cordycepin = Cordycepin IC50/ProTide IC50: HL-60; for IC50: Homo sapiens, HL-60, 72 h
# Method: as §1, §2, §3, §4, §5, §7
# K562 (TdT negative) = assay: ATP (ViaLight plus) cytotoxicity assay; type: cell-based, Human; conditions: for IC50: Homo sapiens, K562, 72 h; for (FD) fold difference compared to Cordycepin = Cordycepin IC50/ProTide IC50: K562
# Method: as §1, §2, §3, §4, §5, §7
# RL (CRL-2261) = assay: ATP (ViaLight plus) cytotoxicity assay; type: cell-based
# Method: as §1, §2, §3, §4, §5, §6, §7
# MOLT-4 = assay: CellTiterGlo viability assay, initial screening; type: cell-based; conditions: Homo sapiens, MOLT-4, 72 h, read-out: IC50 (relative IC50)
# Summary of the method: (§8)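 CTG viability readout after ~72 hr compound exposure. 9 pts, 3.16-fold serial dilution in DMSO, final down to 19.9 nM; DMSO 0.5% final; duplicates; standard CO2 culture.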
# K562 = assay: CellTiterGlo viability assay, initial screening; type: cell-based; conditions: Homo sapiens, K562, 72 h, read-out: IC50 (relative IC50)
# Summary of the method: as §8
# HepG2 = assay: CellTiterGlo viability assay, initial screening; type: cell-based; conditions: Homo sapiens, HepG2, 72 h, read-out: IC50 (relative IC50)
# Summary of the method: as §8
# CCRF-CEM = assay: CellTiterGlo viability assay, initial screening; type: cell-based; conditions: Homo sapiens, 72 h, read-out: IC50 (relative IC50)
# Summary of the method: as §8
# KG-1 = assay: CellTiterGlo viability assay, initial screening; type: cell-based; conditions: Homo sapiens, KG-1, 72 h, read-out: IC50 (relative IC50)
# Summary of the method: as §8
# MCF-7 = assay: CellTiterGlo viability assay, initial screening; type: cell-based; conditions: Homo sapiens, MCF7, 72 h, read-out: IC50 (relative IC50)
# Summary of the method: as §8
# HL-60 = assay: CellTiterGlo viability assay, initial screening; type: cell-based; conditions: Homo sapiens, HL-60, 72 h, read-out: IC50 (relative IC50)
# Summary of the method: as §8
# KG1a cells = assay: Annexin V/propidium iodide in vitro apoptosis assay (LD50); type: cell-based; conditions: 72 h
# Method: The KG1a cell line was maintained in RPMI medium (Invitrogen, Paisley, UK) supplemented with 100 units/ml penicillin, 100 μg/ml streptomycin and 20% foetal calf serum. Cells were subsequently aliquoted (10^5 cells/100 μl) into 96-well plates and were incubated at 37° C. in a humidified 5% carbon dioxide atmosphere for 72 h in the presence of nucleoside analogues and their respective proTides at concentrations that were experimentally determined for each series of compounds. In addition, control cultures were carried out to which no drug was added. Cells were subsequently harvested by centrifugation and were analyzed by flow cytometry using the Annexin V assay.
# Cultured cells were harvested by centrifugation and then resuspended in 195 μl of calcium-rich buffer. Subsequently, 5 μl of Annexin V (Caltag Medsystems, Botolph Claydon, UK) was added to the cell suspension and cells were incubated in the dark for 10 mins prior to washing. Cells were finally resuspended in 190 μl of calcium-rich buffer together with 10 μl of propidium iodide. Apoptosis was assessed by dual-colour immunofluorescent flow cytometry as described previously.
# The data obtained in these experiments were evaluated using one way ANOVA. […] LD50 values were calculated from the non-linear regression and line of best-fit analysis of the sigmoidal dose-response curves. […]
# [2] = CEM, with AK (adenosine kinase inhibitor A-134974, 1 μM)
# [3] = CEM, with EHNA 1 μM (adenosine deaminase blocker)
# [4] = CEM, with NBTI 10 μM (nucleoside transporter blocker)
# [5] = CRL, with AK (adenosine kinase inhibitor A-134974, 1 μM)
# [6] = CRL, with EHNA 1 μM (adenosine deaminase blocker)
# [7] = CRL, with NBTI 10 μM (nucleoside transporter blocker)
SMILES,(FD) fold difference compared to Cordycepin = Cordycepin IC50/ProTide IC50 ([1]; CEM (TdT+ve)),"(FD) fold difference compared to control ([1]; CEM, IC50 with AK inhibitor)","(FD) fold difference compared to control ([1]; CEM, IC50 with EHNA)","(FD) fold difference compared to control ([1]; CEM, IC50 with NBTI)","IC50 ([1]; 72 h, CEM (TdT+ve), 72 hours)","IC50 ([1]; CEM, Control (no inhibitor))","IC50 [1, 2]","IC50 [1, 3]","IC50 [1, 4]",(FD) fold difference compared to Cordycepin = Cordycepin IC50/ProTide IC50 (HL-60 (TdT negative)),IC50 (HL-60 (TdT negative)),IC50 (K562 (TdT negative)),(FD) fold difference compared to Cordycepin = Cordycepin IC50/ProTide IC50 (K562 (TdT negative)),"IC50 (RL (CRL-2261); 72 h, CRL (RL, CRL-2261))","(FD) fold difference compared to Cordycepin = Cordycepin IC50/ProTide IC50 (RL (CRL-2261); CRL (RL, CRL-2261))","IC50 (RL (CRL-2261); CRL, Control (no inhibitor))","(FD) fold difference compared to control (RL (CRL-2261); CRL, IC50 with AK inhibitor)","(FD) fold difference compared to control (RL (CRL-2261); CRL, IC50 with EHNA)","(FD) fold difference compared to control (RL (CRL-2261); CRL, IC50 with NBTI)",IC50 (RL (CRL-2261); [5]),also measured
"C[C@H](NP(=O)(OC[C@@H]1CC(O)[C@H](n2cnc3c(N)ncnc32)O1)Oc1ccccc1)C(=O)OCc1ccccc1 (stereo partly drawn) [Compound A, 3′-deoxyadenosine-5′-O-[phenyl(benzyloxy-L-alaninyl)] phosphate]",(22),(3),(2.2),(1),0.87 µM,1.4 µM,3.6 µM,3.1 µM,2 µM,(3),4.6 µM,2.4 µM,(5),2.1 µM,(12),3.6 µM,(3),(1),(1),10.2 µM,"IC50 (RL (CRL-2261); [6]): 2.9 µM; IC50 (RL (CRL-2261); [7]): 2.6 µM; IC50 (MOLT-4): 0.1 to 5 µM; IC50 (K562): 0.1 to 5 µM; IC50 (HepG2): 5 to 15 µM; IC50 (CCRF-CEM): 0.1 to 5 µM; IC50 (KG-1): 5 to 15 µM; IC50 (MCF-7): 0.1 to 5 µM; IC50 (HL-60): 5 to 15 µM; in vitro drug sensitivity / potency (LD50 comparison, FIG. 1) (KG1a cells): increased in vitro potency when compared to Cordycepin"
"COC(=O)C(C)(C)NP(=O)(OC[C@@H]1C[C@@H](O)[C@H](n2cnc3c(N)ncnc32)O1)Oc1cccc2ccccc12 (stereo partly drawn) [E, Methyl 2-(((((2S,4R,5R)-5-(6-amino-9H-purin-9-yl)-4-hydroxytetrahydrofuran-2-yl)-methoxy)(naphthalen-1-yloxy)phosphoryl)amino)-2-methylpropanoate]",(2),(1),(1),(2),10 µM,9.9 µM,10.3 µM,13.4 µM,17.1 µM,(1),10.2 µM,13.9 µM,(1),11 µM,(2),8.2 µM,(1),(1),(1),7.1 µM,IC50 (RL (CRL-2261); [6]): 5.9 µM; IC50 (RL (CRL-2261); [7]): 8.2 µM; IC50 (MOLT-4): 5 to 15 µM; IC50 (K562): > 100 µM; IC50 (HepG2): 15 to 100 µM; IC50 (CCRF-CEM): 15 to 100 µM; IC50 (KG-1): 15 to 100 µM; IC50 (MCF-7): 15 to 100 µM; IC50 (HL-60): 15 to 100 µM
